Laboratory results published in PubChem BioAssay (NCI).
Values joined by “and” are separate entries in the source; they are usually repeats but may differ in a detail not shown here. Identical values can stand only once.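 Protocol summary: plate cells (96-well), add compound at 5 concentrations, incubate 48 h, interpolate endpoints linearly. Here, GI50 denotes the concentration required for 50% inhibition of growth. TGI marks complete inhibition of growth.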

Columns and labels:
Assay in all cases: inhibition of tumour cell growth, NCI panel, 48 h
CAKI-1 renal = system: CAKI-1 renal
RXF 393 renal = system: RXF 393 renal
SR leukemia = system: SR leukemia
IGROV1 ovarian = system: IGROV1 ovarian
SK-MEL-5 melanoma = system: SK-MEL-5 melanoma
UACC-257 melanoma = system: UACC-257 melanoma
RPMI-8226 leukemia = system: RPMI-8226 leukemia
SF-295 CNS = system: SF-295 CNS
ACHN renal = system: ACHN renal
SNB-75 CNS = system: SNB-75 CNS

Work on `O=C1C(=O)c2cccnc2-c2ncccc21` yielded a GI50 (CAKI-1 renal) of 0.605 µM, a TGI (CAKI-1 renal) of 1.92 µM and a GI50 (RXF 393 renal) of 0.0768 µM. It also gave a TGI (RXF 393 renal) of 0.266 µM, a GI50 (SR leukemia) of 0.0875 µM and a TGI (SR leukemia) of 1.08 µM. The GI50 (IGROV1 ovarian) was 0.133 µM, the TGI (IGROV1 ovarian) was 0.413 µM and the GI50 (SK-MEL-5 melanoma) was 0.239 µM. For the same compound, the TGI (SK-MEL-5 melanoma) was 0.801 µM, the GI50 (UACC-257 melanoma) was 0.268 µM and the TGI (UACC-257 melanoma) was 0.924 µM. The GI50 (RPMI-8226 leukemia) was 0.0459 µM, the TGI (RPMI-8226 leukemia) was 0.399 µM and the GI50 (SF-295 CNS) was 0.295 µM. The TGI (SF-295 CNS) was 0.946 µM, the GI50 (ACHN renal) was 0.0545 µM and the TGI (ACHN renal) was 0.318 µM. For the same compound, the GI50 (SNB-75 CNS) was 0.123 µM and the TGI (SNB-75 CNS) was 1.4 µM.

For `O=c1c(O)c(-c2cc(O)c(O)c(O)c2)oc2cc(O)cc(O)c12`, the TGI (CAKI-1 renal) was 54 µM, the TGI (RXF 393 renal) was 43.4 µM and the TGI (SR leukemia) was over 100 µM. It also gave a TGI (IGROV1 ovarian) of over 100 µM, a TGI (SK-MEL-5 melanoma) of over 100 µM and a TGI (UACC-257 melanoma) of over 100 µM. The TGI (RPMI-8226 leukemia) was over 100 µM, the TGI (SF-295 CNS) was 36.3 µM and the TGI (ACHN renal) was over 100 µM. For the same compound, the TGI (SNB-75 CNS) was over 100 µM.

Compound `Cn1cc2ccccc2c1-c1nc(F)nc(OCC(=O)[C@H]2CCC3[C@@H]4CCC5=CC(=O)CC[C@]5(C)C4[C@@H](O)C[C@@]32C)n1` (some centres undefined) has a TGI (CAKI-1 renal) of 14 µM, a TGI (RXF 393 renal) of 14.5 µM and a TGI (SR leukemia) of 12.8 µM. It also gave a TGI (IGROV1 ovarian) of 22.9 µM, a TGI (SK-MEL-5 melanoma) of 44.9 µM and a TGI (UACC-257 melanoma) of 37.3 µM. The TGI (RPMI-8226 leukemia) was 21.3 µM, the TGI (SF-295 CNS) was 44.4 µM and the TGI (ACHN renal) was 32.6 µM. The TGI (SNB-75 CNS) was 35.2 µM.

Compound `CC12CCC(Br)C(C)(C)C1CC=C1C(=O)OCC1O2` (centres undefined) has a TGI (CAKI-1 renal) of 26.8 µM, a TGI (RXF 393 renal) of 26.3 µM and a TGI (SR leukemia) of 31.2 µM. It also gave a TGI (IGROV1 ovarian) of 17.7 µM, a TGI (SK-MEL-5 melanoma) of over 100 µM and a TGI (UACC-257 melanoma) of 27 µM. The TGI (RPMI-8226 leukemia) was over 60.6 µM, the TGI (SF-295 CNS) was 37.6 µM and the TGI (ACHN renal) was 26.2 µM. For the same compound, the TGI (SNB-75 CNS) was 34.7 µM.

Compound `CC(C)(c1ccccc1)c1ccc(OC#N)cc1` has a TGI (CAKI-1 renal) of over 100 µM, a TGI (RXF 393 renal) of over 100 µM and a TGI (SR leukemia) of 43.1 µM. For the same compound, the TGI (IGROV1 ovarian) was over 100 µM, the TGI (SK-MEL-5 melanoma) was over 100 µM and the TGI (UACC-257 melanoma) was over 100 µM. For the same compound, the TGI (RPMI-8226 leukemia) was over 70.1 µM, the TGI (SF-295 CNS) was over 100 µM and the TGI (ACHN renal) was over 100 µM. The TGI (SNB-75 CNS) was over 74.4 µM.

For `N#C/C(=C\c1ccc(Br)cc1)n1nnc2ccc(F)cc21`, the GI50 (CAKI-1 renal) was 0.293 µM, the TGI (CAKI-1 renal) was 1.35 µM and the GI50 (RXF 393 renal) was 0.465 µM. For the same compound, the TGI (RXF 393 renal) was 1.86 µM, the GI50 (SR leukemia) was 0.348 µM and the TGI (SR leukemia) was over 100 µM. For the same compound, the GI50 (IGROV1 ovarian) was 0.569 µM, the TGI (IGROV1 ovarian) was 2.25 µM and the GI50 (SK-MEL-5 melanoma) was 1.57 µM. The TGI (SK-MEL-5 melanoma) was 2.94 µM, the GI50 (UACC-257 melanoma) was 1.42 µM and the TGI (UACC-257 melanoma) was 4.25 µM. For the same compound, the GI50 (RPMI-8226 leukemia) was 0.841 µM, the TGI (RPMI-8226 leukemia) was 6.96 µM and the GI50 (SF-295 CNS) was 2.11 µM. It also gave a TGI (SF-295 CNS) of 5.07 µM, a GI50 (ACHN renal) of 0.671 µM and a TGI (ACHN renal) of 2.06 µM. It also gave a TGI (SNB-75 CNS) of 2.24 µM.

`C=C(c1ccccc1)[C@@]1(O)CC[C@@H]1N(CC#N)Cc1ccccc1` showed a TGI (CAKI-1 renal) of 45.7 µM, a TGI (RXF 393 renal) of 34.6 µM and a TGI (SR leukemia) of over 69.9 µM. It also gave a TGI (IGROV1 ovarian) of 72.6 µM, a TGI (SK-MEL-5 melanoma) of 31.8 µM and a TGI (UACC-257 melanoma) of 34 µM. The TGI (RPMI-8226 leukemia) was over 67 µM, the TGI (SF-295 CNS) was over 100 µM and the TGI (ACHN renal) was 41.4 µM. It also gave a TGI (SNB-75 CNS) of over 96.5 µM.

`O=C1C(Cl)=C(NCc2ccco2)C(=O)c2ccccc21` was tested, and the GI50 (CAKI-1 renal) was 58.1 µM, the TGI (CAKI-1 renal) was over 100 µM and the GI50 (RXF 393 renal) was 21.6 µM. It also gave a TGI (RXF 393 renal) of 50.6 µM, a GI50 (SR leukemia) of 20.6 µM and a TGI (SR leukemia) of over 100 µM. The GI50 (IGROV1 ovarian) was 10.9 µM, the TGI (IGROV1 ovarian) was 44 µM and the GI50 (SK-MEL-5 melanoma) was 1.62 µM. It also gave a TGI (SK-MEL-5 melanoma) of 3.11 µM, a GI50 (UACC-257 melanoma) of 7.81 µM and a TGI (UACC-257 melanoma) of 40 µM. For the same compound, the GI50 (RPMI-8226 leukemia) was 10.2 µM, the TGI (RPMI-8226 leukemia) was over 100 µM and the GI50 (SF-295 CNS) was 8.24 µM. For the same compound, the TGI (SF-295 CNS) was 41.6 µM, the GI50 (ACHN renal) was 27 µM and the TGI (ACHN renal) was over 100 µM. For the same compound, the GI50 (SNB-75 CNS) was 2.25 µM and the TGI (SNB-75 CNS) was 7.53 µM.

`Cn1cc(-c2ccc(-c3ccc(C4=NC5(CC5)C(=O)N4C[C@@H]4CCN(C(=O)C5CC5)C4)cc3)cc2)cn1` showed a GI50 (CAKI-1 renal) of 12.6 µM, a TGI (CAKI-1 renal) of over 100 µM and a GI50 (RXF 393 renal) of 15.9 µM. The TGI (RXF 393 renal) was 33.3 µM, the GI50 (SR leukemia) was 1.68 µM and the TGI (SR leukemia) was 95.3 µM. For the same compound, the GI50 (IGROV1 ovarian) was 28.7 µM, the TGI (IGROV1 ovarian) was over 100 µM and the GI50 (SK-MEL-5 melanoma) was 2.46 µM. It also gave a TGI (SK-MEL-5 melanoma) of 15.2 µM, a GI50 (UACC-257 melanoma) of 39.3 µM and a TGI (UACC-257 melanoma) of over 100 µM. It also gave a GI50 (RPMI-8226 leukemia) of 0.0883 µM, a TGI (RPMI-8226 leukemia) of 19.7 µM and a GI50 (SF-295 CNS) of 10.8 µM. For the same compound, the TGI (SF-295 CNS) was 29.2 µM, the GI50 (ACHN renal) was 14.3 µM and the TGI (ACHN renal) was over 100 µM. It also gave a GI50 (SNB-75 CNS) of 20 µM and a TGI (SNB-75 CNS) of over 100 µM.

With `Cc1cn(-c2cc(NC(=O)c3ccc(C)c(Nc4nccc(-c5cccnc5)n4)c3)cc(C(F)(F)F)c2)cn1` the GI50 (CAKI-1 renal) was > 10 µM and 7.37 µM, the TGI (CAKI-1 renal) was > 10 µM and 14.3 µM and the GI50 (RXF 393 renal) was 2.59 µM and 2.01 µM. The TGI (RXF 393 renal) was 6.54 µM and 4.12 µM, the GI50 (SR leukemia) was 3.06 µM and 2.67 µM and the TGI (SR leukemia) was > 10 µM and 26.9 µM. For the same compound, the GI50 (IGROV1 ovarian) was 2.23 µM and 1.83 µM, the TGI (IGROV1 ovarian) was 5.06 µM and 4.2 µM and the GI50 (SK-MEL-5 melanoma) was 1.73 µM. The TGI (SK-MEL-5 melanoma) was 7.01 µM, the GI50 (UACC-257 melanoma) was 4.46 µM and 2.49 µM and the TGI (UACC-257 melanoma) was > 10 µM and 7.97 µM. The GI50 (RPMI-8226 leukemia) was 2.29 µM and 2.25 µM, the TGI (RPMI-8226 leukemia) was over 100 µM and the GI50 (SF-295 CNS) was 3.16 µM and 2.78 µM. The TGI (SF-295 CNS) was > 10 µM and 11.3 µM, the GI50 (ACHN renal) was > 10 µM and 9.36 µM and the TGI (ACHN renal) was > 10 µM and 27.2 µM. The GI50 (SNB-75 CNS) was 8.04 µM and 3.47 µM and the TGI (SNB-75 CNS) was > 10 µM and 11.5 µM.

`C=CCC1C(=O)CC2(C)CC(=O)C(CC=C)C12C` (centres undefined) gave a TGI (CAKI-1 renal) of over 100 µM, a TGI (RXF 393 renal) of over 100 µM and a TGI (SR leukemia) of over 100 µM. For the same compound, the TGI (IGROV1 ovarian) was over 100 µM, the TGI (SK-MEL-5 melanoma) was over 100 µM and the TGI (UACC-257 melanoma) was over 100 µM. For the same compound, the TGI (RPMI-8226 leukemia) was over 100 µM, the TGI (SF-295 CNS) was over 100 µM and the TGI (ACHN renal) was over 100 µM. It also gave a TGI (SNB-75 CNS) of over 100 µM.
